Assay results from patent US9028856B2, “Synergistic pesticide compositions” (priority 2008, dated 2015).

Tests used:
[1] = system: Culex quinquefasciatus mosquito; experiment: USDA Petri Dish Method, 3 min exposure to treated glazed tile (twenty 4-6 day old females); assay type: in vivo; details: Table 50, fipronil/adjuvant in acetone, glazed tile, 3 min exposure
Procedure, shortened: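 Twenty 4-6 day old female Culex quinquefasciatus exposed 3 minutes to overnight-dried acetone-applied treatment, then moved to untreated card; at least three replicates. Knockdown scored at intervals over 1–3 hours, sucrose provided, mortality at 24 hours.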

[2] = system: Aedes aegypti mosquito; experiment: USDA Petri Dish Method, 3 min exposure to treated glazed tile; assay type: in vivo
Procedure, shortened: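 Resmethrin or clothianidin in acetone, with or without adjuvant, applied to glazed tile and dried overnight; twenty 4-6 day old female mosquitoes exposed 3 minutes, then moved to clean index card. Knockdown scored at intervals over hours; mortality at 24 hours with sucrose provided; at least three replicates.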

[3] = Table 48, fipronil/adjuvant in acetone, glazed tile, 3 min exposure
[4] = Table 56, Aedes aegypti, glazed tile, 3 min exposure

SMILES	Average % Knockdown & Mortality after 30 min [1]	Average % Knockdown & Mortality after 60 min [1]	Average % Knockdown & Mortality after 2 hr [1]	Average % Knockdown & Mortality after 3 hr [1]	Average % Knockdown & Mortality after 24 hr [1]	Average % Knockdown & Mortality after 15 min [2, 3]	Average % Knockdown & Mortality after 30 min [2, 3]	Average % Knockdown & Mortality after 60 min [2, 3]	Average % Knockdown & Mortality after 4 hr [2, 3]	Average % Knockdown & Mortality after 6 hr [2, 3]	Average % Knockdown & Mortality after 24 hr [2, 3]	Average % Knockdown & Mortality after 4 hr [2, 4]	Average % Knockdown & Mortality after 6 hr [2, 4]	Average % Knockdown & Mortality after 24 hr [2, 4]	Average % Knockdown & Mortality after 2 hr ([2]; Table 56, Aedes aegypti, glazed tile, 3 min exposure, adjuvant = Compound A 1% + Compound B 0.5%, 2 hr)	mortality rate (peak / increased over time), FIG. 50 ([2]; ethiprole 0.01% AI with or without adjuvant)
N#Cc1nn(-c2c(Cl)cc(C(F)(F)F)cc2Cl)c(N)c1[S+]([O-])C(F)(F)F (stereo not drawn) [Fipronil (.001%)]	0%	0%	0%	0%	2%	0%	0%	0%	0%	3%	3%					
N#Cc1nn(-c2c(Cl)cc(C(F)(F)F)cc2Cl)c(N)c1[S+]([O-])C(F)(F)F (stereo not drawn) [Fipronil (.01%)]	0%	0%	0%	0%	48%	5%	6%	19%	42%	56%	72%					
CC[S+]([O-])c1c(C#N)nn(-c2c(Cl)cc(C(F)(F)F)cc2Cl)c1N (stereo not drawn) [Ethiprole (1%)]												17%	27%	46%	2%	
CC[S+]([O-])c1c(C#N)nn(-c2c(Cl)cc(C(F)(F)F)cc2Cl)c1N (stereo not drawn) [ethiprole]																15-18%
